# In the SangsterLogP compilation:
# Assay: method code SF-AS, from DOI: 10.1248/cpb.30.4175, PMID: 7165882
row,Compound,logP
1,CN(C)C(=O)OCc1ccc(F)cc1,2.3
2,CN(C)C(=O)OCc1ccc(C#N)cc1,1.67
3,CN(C)C(=O)OCc1cccc(Cl)c1,2.82
4,Cc1ccc(COC(=O)N(C)C)cc1,2.63
5,CN(C)C(=O)OCc1ccc(OC(=O)N(C)C)cc1,1.59
6,CN(C)C(=O)OCc1ccc(Cl)cc1,2.93
7,CN(C)C(=O)OCc1ccc(OCc2ccccc2)cc1,3.27
8,CN(C)C(=O)OCc1ccccc1,2.16
9,CN(C)C(=O)OCc1ccc(I)cc1,3.32
10,CN(C)C(=O)OCc1ccc([N+](=O)[O-])cc1,1.95
11,CN(C)C(=O)OCc1ccc(Br)cc1,3.01
12,COc1ccc(COC(=O)N(C)C)cc1,2.2
13,COc1cccc(COC(=O)N(C)C)c1,2.09
